Experimental data published in US20250145665A1, “MACROCYCLIC PEPTIDES USEFUL AS MODULATORS OF TNF ALPHA” (Bristol-Myers Squibb Company, priority 2023, published 2025).
Starred links: 1 amine or outer side, 2 acyl side, 3 side chain; linkers in the order of their positions; H or OH if unused. Positions of bridges follow the written chain, without caps; N, C: chain ends. Non-standard residues stand in square brackets, D forms with d. Residues, ends and D or L forms follow the SMILES beside them. *: point of attachment. X5 = Cn1nc(C(=O)Nc2ccc(-c3ccc(C[C@H](N[*:1])C(=O)[*:2])cc3)cc2)c2ccccc21; dArg(Nω-CH2C6H4-3-CH2Gua) = N=C(N)NCc1cccc(CNC(=N)NCCC[C@@H](N)C(=O)O)c1; X22 = O=C(O)COc1cccc(C(=O)N[C@@H](Cc2cn(CC(=O)O)c3ccccc23)C(=O)*)c1; Bip(4'-NH) = O=C([C@H](Cc1ccc(-c2ccc(N[*:3])cc2)cc1)N[*:1])[*:2]; Indazole3carbonyl(1-CH2COOH) = O=C(O)Cn1nc(C(=O)*)c2ccccc21; Bip(4'-COOH) = N[C@@H](Cc1ccc(-c2ccc(C(=O)O)cc2)cc1)C(=O)O; Bip(4'-NHAc) = CC(=O)Nc1ccc(-c2ccc(C[C@H](N)C(=O)O)cc2)cc1; Indole3carbonyl(1-CH2COOH) = O=C(O)Cn1cc(C(=O)*)c2ccccc21; X66 = N=C(NCCC[C@@H](N[*:1])C(=O)[*:2])NCc1ccc(F)c(F)c1; X28 = N=C(NCCC[C@@H](N[*:1])C(=O)[*:2])NCc1ccc(CN)cc1; Ala(imidazol-2-yl) = N[C@@H](Cc1ncc[nH]1)C(=O)O; dArg(ω-Bn) = N=C(NCCC[C@@H](N)C(=O)O)NCc1ccccc1; Ala(morpholin-4-yl) = N[C@@H](CN1CCOCC1)C(=O)O; Benzoyl(3-OCH2COOH) = O=C(O)COc1cccc(C(=O)*)c1; Phe(3-CONH2) = NC(=O)c1cccc(C[C@H](N)C(=O)O)c1; Bip = N[C@@H](Cc1ccc(-c2ccccc2)cc1)C(=O)O; 2Pal = N[C@@H](Cc1ccccn1)C(=O)O; Cha = N[C@@H](CC1CCCCC1)C(=O)O; Abu = CC[C@H](N)C(=O)O; Sar = CNCC(=O)O

The molecules below were run against TNFα (Homo sapiens, UniProt P01375) (assay: TNF-Induced HEK-Blue Assay). Settings: not given.
Sequence of TNFα (P01375 77-233 limits assumed): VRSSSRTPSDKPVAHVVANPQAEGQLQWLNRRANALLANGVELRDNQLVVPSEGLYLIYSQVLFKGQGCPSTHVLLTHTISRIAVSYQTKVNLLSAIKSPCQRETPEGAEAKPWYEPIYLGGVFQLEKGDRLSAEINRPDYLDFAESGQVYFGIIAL
Format: cell-based

Row | SMILES | IC50
1 | CC(C)C[C@@H]1NC(=O)[C@H](Cc2ccc(O)cc2)NC(=O)[C@H](C(C)C)NC(=O)[C@@H]2CCCN2C(=O)[C@H](C(C)C)NC(=O)[C@@H](CCCNC(=N)NCc2ccccc2)NC(=O)[C@H](CC(=O)O)NC(=O)[C@@H]2CCCN2C(=O)CN(C)C(=O)[C@H](Cc2ccc(-c3ccc(NC(=O)c4cn(CC(=O)O)c5ccccc45)cc3)cc2)NC(=O)[C@H](Cc2ccc(-c3ccccc3)cc2)NC(=O)[C@H](CN2CCOCC2)NC(=O)CSC[C@@H](C(=O)NCC(N)=O)NC1=O [Example 531] ({CH2CO}-[Ala(morpholin-4-yl)][Bip][Bip(4'-NH)](Indole3carbonyl(1-CH2COOH))[Sar]PD[dArg(ω-Bn)]VPVYLCG-NH2; thioether N-13) | < 50 nM
2 | CC(C)C[C@@H]1NC(=O)[C@H](CCCNC(=N)N)NC(=O)[C@H](C(C)C)NC(=O)[C@@H]2CCCN2C(=O)[C@H](C(C)C)NC(=O)[C@@H](CCCNC(=N)NCc2ccc(CN)cc2)NC(=O)[C@H](CC(=O)O)NC(=O)[C@@H]2CCCN2C(=O)CN(C)C(=O)[C@H](Cc2ccc(-c3ccc(NC(=O)c4nn(CC(=O)O)c5ccccc45)cc3)cc2)NC(=O)[C@H](Cc2ccc(-c3ccccc3)cc2)NC(=O)[C@H](CN2CCOCC2)NC(=O)CSC[C@@H](C(=O)NCC(N)=O)NC1=O [Example 501] ({CH2CO}-[Ala(morpholin-4-yl)][Bip][Bip(4'-NH)](Indazole3carbonyl(1-CH2COOH))[Sar]PD[X28]VPVRLCG-NH2; thioether N-13) | 50 to 200 nM

Same assay, conditions: HEK-Blue-CD40L cells, NF-kB-driven secreted alkaline phosphatase reporter; TNFα 0.5 ng/ml; 18 h; read-out: TNF induced HEK-Blue assay IC50 value

Row | IC50 | SMILES
3 | 50 to 200 nM | CC[C@@H]1NC(=O)[C@@H]2CCCN2C(=O)[C@H](C(C)C)NC(=O)[C@@H](CCCNC(=N)N)NC(=O)[C@H](CC(=O)O)NC(=O)[C@H](Cc2ccc(O)cc2)NC(=O)CN(C)C(=O)[C@H](Cc2ccc(-c3ccccc3)cc2)NC(=O)[C@H](Cc2ccc(-c3ccccc3)cc2)NC(=O)[C@H](CN2CCOCC2)NC(=O)CSC[C@@H](C(=O)NCC(N)=O)NC(=O)[C@H](CC(C)C)NC(=O)[C@H](Cc2ccc(O)cc2)NC1=O [Example 161] ({CH2CO}-[Ala(morpholin-4-yl)][Bip][Bip][Sar]YD[dR]VP[Abu]YLCG-NH2; thioether N-13)
4 | < 50 nM | CC(=O)Nc1ccc(-c2ccc(C[C@@H]3NC(=O)[C@H](Cc4ccc(-c5ccc(C(=O)O)cc5)cc4)NC(=O)[C@H](CC4CCCCC4)NC(=O)CSC[C@@H](C(=O)NCC(N)=O)NC(=O)[C@H](CC(C)C)NC(=O)[C@H](Cc4cccc(C(N)=O)c4)NC(=O)[C@H](C(C)C)NC(=O)[C@@H]4CCCN4C(=O)[C@H](C(C)C)NC(=O)[C@@H](CCCNC(=N)N)NC(=O)[C@H](CC(=O)O)NC(=O)[C@H](Cc4ccc(O)cc4)NC(=O)CN(C)C3=O)cc2)cc1 [Example 252] ({CH2CO}-[Cha][Bip(4'-COOH)][Bip(4'-NHAc)][Sar]YD[dR]VPV[Phe(3-CONH2)]LCG-NH2; thioether N-13)
5 | < 50 nM | CC(C)C[C@@H]1NC(=O)[C@H](Cc2ncc[nH]2)NC(=O)[C@H](C(C)C)NC(=O)[C@@H]2CCCN2C(=O)[C@H](C(C)C)NC(=O)[C@@H](CCCNC(=N)NCc2cccc(CNC(=N)N)c2)NC(=O)[C@H](CC(=O)O)NC(=O)[C@H](Cc2ccccn2)NC(=O)CN(C)C(=O)[C@H](Cc2ccc(-c3ccc(NC(=O)c4cccc(OCC(=O)O)c4)cc3)cc2)NC(=O)[C@H](Cc2ccc(-c3ccc(C(=O)O)cc3)cc2)NC(=O)[C@H](CC2CCCCC2)NC(=O)CSC[C@@H](C(=O)NCC(N)=O)NC1=O [Example 560] ({CH2CO}-[Cha][Bip(4'-COOH)][Bip(4'-NH)](Benzoyl(3-OCH2COOH))[Sar][2Pal]D[dArg(Nω-CH2C6H4-3-CH2Gua)]VPV[Ala(imidazol-2-yl)]LCG-NH2; thioether N-13)
6 | 50 to 200 nM | CC[C@H](C)[C@@H]1NC(=O)[C@@H](CCCNC(=N)N)NC(=O)[C@H](CC(=O)O)NC(=O)[C@H](Cc2cnc[nH]2)NC(=O)CN(C)C(=O)[C@H](Cc2ccc(-c3ccc(NC(=O)[C@H](Cc4cn(CC(=O)O)c5ccccc45)NC(=O)c4cccc(OCC(=O)O)c4)cc3)cc2)NC(=O)[C@H](Cc2ccc(-c3ccccc3)cc2)NC(=O)[C@H](CC2CCCCC2)NC(=O)CSC[C@@H](C(=O)NCC(N)=O)NC(=O)[C@H](CC(C)C)NC(=O)[C@H](Cc2ncc[nH]2)NC(=O)[C@H](C(C)C)NC(=O)[C@@H]2CCCN2C1=O [Example 414] ({CH2CO}-[Cha][Bip][Bip(4'-NH)](X22)[Sar]HD[dR]IPV[Ala(imidazol-2-yl)]LCG-NH2; thioether N-13)

Row | SMILES | IC50
7 | CC(C)C[C@@H]1NC(=O)[C@H](CCCNC(=N)N)NC(=O)[C@H](C(C)C)NC(=O)[C@@H]2CCCN2C(=O)[C@H](C(C)C)NC(=O)[C@@H](CCCNC(=N)NCc2ccc(F)c(F)c2)NC(=O)[C@H](CC(=O)O)NC(=O)[C@@H]2CCCN2C(=O)CN(C)C(=O)[C@H](Cc2ccc(-c3ccc(NC(=O)c4nn(C)c5ccccc45)cc3)cc2)NC(=O)[C@H](Cc2ccc(-c3ccccc3)cc2)NC(=O)[C@H](CN2CCOCC2)NC(=O)CSC[C@@H](C(=O)NCC(N)=O)NC1=O [Example 473] ({CH2CO}-[Ala(morpholin-4-yl)][Bip][X5][Sar]PD[X66]VPVRLCG-NH2; thioether N-13) | < 50 nM
